Test results reported in ChEMBL document CHEMBL3085700 (J Med Chem, 2013).
Activity calls are given as the source filed them. The calls are words filed in the database; no cut-off is given here.

Assays:
[1] = molecular target: T1, Monoacylglycerol lipase ABHD6 (Homo sapiens) (UniProt Q9BV23); experiment: Inhibition of human ABHD6 overexpressed in HEK293 cells assessed as 2-AG hydrolysis at 1 uM by fluorescent glycerol assay; assay type: cell-based
T1 sequence (whole entry): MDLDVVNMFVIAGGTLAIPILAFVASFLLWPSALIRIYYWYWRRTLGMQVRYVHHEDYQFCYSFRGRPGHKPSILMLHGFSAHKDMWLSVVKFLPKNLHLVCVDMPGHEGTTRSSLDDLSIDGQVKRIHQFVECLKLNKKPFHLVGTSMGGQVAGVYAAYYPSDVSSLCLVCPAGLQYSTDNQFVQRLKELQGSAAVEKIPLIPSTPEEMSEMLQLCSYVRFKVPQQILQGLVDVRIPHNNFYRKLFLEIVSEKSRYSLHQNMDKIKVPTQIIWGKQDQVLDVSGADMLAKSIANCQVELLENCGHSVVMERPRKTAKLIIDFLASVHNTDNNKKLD

[2] = molecular target: T2, Monoacylglycerol lipase ABHD6 (Mus musculus) (UniProt Q8R2Y0); experiment: Inhibition of TAMRA-FP-labeled ABHD6 in mouse brain membrane at 10 uM after 1 hr by fluorescent gel scanning assay; assay type: cell membranes
T2 sequence (whole entry): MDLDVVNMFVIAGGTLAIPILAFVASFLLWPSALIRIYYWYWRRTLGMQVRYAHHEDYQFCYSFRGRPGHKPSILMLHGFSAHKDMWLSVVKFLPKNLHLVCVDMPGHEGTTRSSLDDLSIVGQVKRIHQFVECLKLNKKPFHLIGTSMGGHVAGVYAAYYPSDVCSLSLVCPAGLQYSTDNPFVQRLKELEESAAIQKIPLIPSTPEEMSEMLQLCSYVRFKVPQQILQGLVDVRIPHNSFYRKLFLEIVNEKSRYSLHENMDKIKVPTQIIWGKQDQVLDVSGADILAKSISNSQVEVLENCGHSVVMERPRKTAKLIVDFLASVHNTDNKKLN

Homo sapiens [3] = organism: Homo sapiens; experiment: Selectivity ratio for human recombinant FAAH over human recombinant COX-2
Homo sapiens [4] = organism: Homo sapiens; experiment: Selectivity ratio for human recombinant FAAH over human recombinant MAGL
[5] = Selectivity ratio for human recombinant FAAH over ovine COX-1
[6] = molecular target: T3, Prostaglandin G/H synthase 2 (Homo sapiens) (UniProt P35354); experiment: Inhibition of human recombinant COX-2 using arachidonic acid as substrate assessed as oxygen consumption at 30 to 100 uM measured within 10 to 50 secs relative to control
T3 sequence (whole entry): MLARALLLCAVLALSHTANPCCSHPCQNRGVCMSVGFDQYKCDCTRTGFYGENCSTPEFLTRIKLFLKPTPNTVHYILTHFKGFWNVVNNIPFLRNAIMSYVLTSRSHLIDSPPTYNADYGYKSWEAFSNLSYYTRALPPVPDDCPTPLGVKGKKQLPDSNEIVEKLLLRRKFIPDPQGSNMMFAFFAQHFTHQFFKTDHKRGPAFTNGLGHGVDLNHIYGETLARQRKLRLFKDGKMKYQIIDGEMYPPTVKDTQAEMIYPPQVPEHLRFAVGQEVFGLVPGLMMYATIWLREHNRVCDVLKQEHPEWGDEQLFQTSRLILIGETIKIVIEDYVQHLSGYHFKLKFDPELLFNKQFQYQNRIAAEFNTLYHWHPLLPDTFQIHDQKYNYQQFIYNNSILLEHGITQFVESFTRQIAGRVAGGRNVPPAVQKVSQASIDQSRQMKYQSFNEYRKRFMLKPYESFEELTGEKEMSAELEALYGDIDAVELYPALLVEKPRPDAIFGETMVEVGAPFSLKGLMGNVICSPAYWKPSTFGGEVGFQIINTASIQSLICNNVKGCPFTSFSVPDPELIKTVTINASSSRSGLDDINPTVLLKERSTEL

[7] = molecular target: Cannabinoid receptor 1 (Rattus norvegicus) (UniProt P20272); experiment: Antagonist activity at CB1 receptor in rat cerebellar membranes assessed as HU210-evoked response up to 10 uM incubated for 10 mins prior to testing by [35S]GTPgammaS binding assay; assay type: functional, cell membranes; settings: Cerebellum, Membrane
Cannabinoid receptor 1 (Rattus norvegicus), sequence (P20272 whole entry): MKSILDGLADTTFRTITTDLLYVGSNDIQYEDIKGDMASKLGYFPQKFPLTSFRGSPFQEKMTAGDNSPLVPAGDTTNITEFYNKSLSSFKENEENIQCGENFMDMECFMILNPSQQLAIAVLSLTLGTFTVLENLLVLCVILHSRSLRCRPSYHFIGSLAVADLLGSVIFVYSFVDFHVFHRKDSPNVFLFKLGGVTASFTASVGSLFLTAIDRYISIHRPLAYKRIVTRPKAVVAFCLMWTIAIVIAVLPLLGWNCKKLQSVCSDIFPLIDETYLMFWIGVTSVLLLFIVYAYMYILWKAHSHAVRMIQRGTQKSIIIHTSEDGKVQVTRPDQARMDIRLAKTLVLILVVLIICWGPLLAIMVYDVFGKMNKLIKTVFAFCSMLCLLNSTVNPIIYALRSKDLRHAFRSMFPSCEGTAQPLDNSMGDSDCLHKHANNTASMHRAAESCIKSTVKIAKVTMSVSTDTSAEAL

[8] = molecular target: Cannabinoid receptor 2 (Homo sapiens) (UniProt P34972); experiment: Agonist activity at human CB2 receptor expressed in CHO cell membranes up to 10 uM incubated for 10 mins prior to testing by [35S]GTPgammaS binding assay; assay type: functional
Cannabinoid receptor 2 (Homo sapiens), sequence (P34972 whole entry): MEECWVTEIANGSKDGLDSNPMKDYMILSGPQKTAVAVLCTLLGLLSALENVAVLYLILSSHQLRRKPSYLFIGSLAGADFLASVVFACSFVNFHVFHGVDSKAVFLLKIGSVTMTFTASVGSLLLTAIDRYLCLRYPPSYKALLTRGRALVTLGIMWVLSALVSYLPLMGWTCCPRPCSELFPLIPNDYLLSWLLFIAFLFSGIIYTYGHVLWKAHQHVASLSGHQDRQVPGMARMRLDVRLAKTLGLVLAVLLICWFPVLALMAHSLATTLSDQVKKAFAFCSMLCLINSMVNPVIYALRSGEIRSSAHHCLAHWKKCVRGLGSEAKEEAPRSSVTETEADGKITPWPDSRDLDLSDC

[9] = molecular target: T3, Prostaglandin G/H synthase 2 (Homo sapiens); experiment: Inhibition of human recombinant COX-2 assessed as inhibition of 2-AG cyclooxygenation at 100 uM measured within 10 to 50 secs relative to control
[10] = molecular target: T4, Fatty-acid amide hydrolase 1 (Homo sapiens) (UniProt O00519); experiment: Inhibition of human recombinant FAAH overexpressed in African green monkey COS7 cells using [3H]-anandamide as substrate at 10 to 100 uM preincubated for 10 to 60 mins by liquid scintillation counting analysis; assay type: cell-based; settings: COS-7
T4 sequence (whole entry): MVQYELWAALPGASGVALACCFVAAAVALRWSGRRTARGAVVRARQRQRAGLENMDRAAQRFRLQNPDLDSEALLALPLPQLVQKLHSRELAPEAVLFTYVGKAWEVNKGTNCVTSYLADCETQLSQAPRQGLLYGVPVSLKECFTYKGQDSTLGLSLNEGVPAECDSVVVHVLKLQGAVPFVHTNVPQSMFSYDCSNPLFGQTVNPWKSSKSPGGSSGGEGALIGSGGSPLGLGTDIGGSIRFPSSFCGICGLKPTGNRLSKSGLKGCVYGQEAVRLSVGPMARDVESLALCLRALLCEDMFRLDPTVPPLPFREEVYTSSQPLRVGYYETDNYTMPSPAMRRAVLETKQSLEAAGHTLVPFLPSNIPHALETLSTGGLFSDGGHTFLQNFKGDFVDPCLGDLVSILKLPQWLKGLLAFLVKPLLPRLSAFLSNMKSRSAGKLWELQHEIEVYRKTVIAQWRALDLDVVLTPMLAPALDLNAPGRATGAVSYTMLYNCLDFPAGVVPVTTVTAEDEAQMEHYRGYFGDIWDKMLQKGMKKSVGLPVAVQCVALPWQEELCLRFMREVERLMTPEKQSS

[11] = molecular target: T5, Monoglyceride lipase (Homo sapiens) (UniProt Q99685); experiment: Inhibition of human recombinant MAGL overexpressed in HEK cells using 2-AG as substrate at 10 uM preincubated for 10 mins before substrate addition measured after 10 mins by HPLC analysis relative to control; assay type: cell-based; settings: HEK293
T5 sequence (whole entry): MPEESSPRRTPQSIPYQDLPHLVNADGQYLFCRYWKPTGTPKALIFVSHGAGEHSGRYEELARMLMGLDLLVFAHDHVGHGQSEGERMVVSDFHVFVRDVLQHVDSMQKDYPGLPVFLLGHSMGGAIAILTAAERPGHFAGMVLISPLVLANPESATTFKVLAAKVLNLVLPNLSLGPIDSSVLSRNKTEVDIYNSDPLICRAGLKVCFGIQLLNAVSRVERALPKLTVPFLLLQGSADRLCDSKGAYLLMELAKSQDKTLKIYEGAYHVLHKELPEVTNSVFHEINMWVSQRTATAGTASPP

inhibition [1]: inactive
inhibition [2]: inactive
Selectivity ratio (Homo sapiens [3]): > 900
Selectivity ratio (Homo sapiens [4]): > 900
Selectivity ratio [5]: > 900
inhibition [6]: 30%
Activity [7]: inactive
Activity [8]: inactive
inhibition [9]: 30%
inhibition [10]: Active
inhibition [11]: 16%
Compound: COc1nn([C@@H](C)c2ccc(CC(C)C)cc2)c(=O)o1
